Read-outs that look alike come from different tables or passages of the source.
Experiments:
LeTx = LeTx (Bacillus anthracis, UniProt P13423); settings: raw 264.7 cells
α-HL [1] = biological target: T1, α-HL (Staphylococcus aureus, UniProt P09616)
α-HL [2] = biological target: T1, α-HL; type: biochemical; settings: read-out: Inhibition of trans-membrane conductance IC50
ε-toxin = ε-toxin (Clostridium perfringens, UniProt Q02307)
[3] = rat, in vivo; cited from earlier work

ε-toxin, sequence (Q02307 46-306 limits assumed): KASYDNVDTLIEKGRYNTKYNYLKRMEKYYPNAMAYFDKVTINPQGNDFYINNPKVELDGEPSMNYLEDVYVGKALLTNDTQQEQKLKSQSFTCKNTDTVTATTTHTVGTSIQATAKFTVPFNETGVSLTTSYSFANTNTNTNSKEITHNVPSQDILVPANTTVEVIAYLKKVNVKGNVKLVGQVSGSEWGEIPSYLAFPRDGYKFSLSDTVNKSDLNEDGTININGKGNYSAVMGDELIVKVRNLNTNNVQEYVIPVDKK
T1 sequence (P09616 27-319 limits assumed): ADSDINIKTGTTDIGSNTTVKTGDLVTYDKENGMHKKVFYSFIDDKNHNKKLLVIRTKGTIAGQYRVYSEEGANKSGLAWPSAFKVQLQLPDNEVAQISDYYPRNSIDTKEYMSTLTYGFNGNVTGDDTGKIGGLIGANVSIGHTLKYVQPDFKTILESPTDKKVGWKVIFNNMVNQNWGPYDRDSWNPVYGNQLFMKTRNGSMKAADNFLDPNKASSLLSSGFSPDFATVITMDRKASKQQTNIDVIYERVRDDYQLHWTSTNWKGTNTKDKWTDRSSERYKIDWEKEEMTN
LeTx, sequence (P13423 197-764 limits assumed): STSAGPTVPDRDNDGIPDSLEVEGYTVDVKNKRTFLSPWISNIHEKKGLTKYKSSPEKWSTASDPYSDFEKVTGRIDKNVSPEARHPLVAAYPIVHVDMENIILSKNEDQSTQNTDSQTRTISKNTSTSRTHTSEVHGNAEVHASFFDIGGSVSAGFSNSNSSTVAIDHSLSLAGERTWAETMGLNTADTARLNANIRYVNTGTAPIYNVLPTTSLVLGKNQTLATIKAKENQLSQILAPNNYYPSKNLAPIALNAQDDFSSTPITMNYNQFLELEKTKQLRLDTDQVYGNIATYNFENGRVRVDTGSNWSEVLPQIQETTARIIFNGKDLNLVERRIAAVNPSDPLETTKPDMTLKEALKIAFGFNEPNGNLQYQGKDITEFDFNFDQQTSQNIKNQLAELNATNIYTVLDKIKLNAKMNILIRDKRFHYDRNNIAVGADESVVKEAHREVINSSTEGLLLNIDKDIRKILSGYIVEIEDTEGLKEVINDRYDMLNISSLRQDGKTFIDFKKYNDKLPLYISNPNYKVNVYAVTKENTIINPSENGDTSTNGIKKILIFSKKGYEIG

Molecule `Cc1ccc(CNC[C@H]2O[C@@H]3O[C@H]4[C@H](O)[C@@H](O)[C@@H](O[C@H]5[C@H](O)[C@@H](O)[C@@H](O[C@H]6[C@H](O)[C@@H](O)[C@@H](O[C@H]7[C@H](O)[C@@H](O)[C@@H](O[C@H]8[C@H](O)[C@@H](O)[C@@H](O[C@H]9[C@H](O)[C@@H](O)[C@@H](O[C@H]2[C@H](O)[C@H]3O)O[C@@H]9CNCc2ccc(C)cc2)O[C@@H]8CNCc2ccc(C)cc2)O[C@@H]7CNCc2ccc(C)cc2)O[C@@H]6CNCc2ccc(C)cc2)O[C@@H]5CNCc2ccc(C)cc2)O[C@@H]4CNCc2ccc(C)cc2)cc1` [Compound 8] has an IC50 (LeTx) of 0.5 ± 0.2 µM.
In the case of `O[C@@H]1[C@@H](O)[C@H]2O[C@H]3[C@H](O)[C@@H](O)[C@@H](O[C@H]4[C@H](O)[C@@H](O)[C@@H](O[C@H]5[C@H](O)[C@@H](O)[C@@H](O[C@H]6[C@H](O)[C@@H](O)[C@@H](O[C@H]7[C@H](O)[C@@H](O)[C@@H](O[C@H]8[C@H](O)[C@@H](O)[C@@H](O[C@@H]1[C@@H](CNCc1ccc(Cl)cc1)O2)O[C@@H]8CNCc1ccc(Cl)cc1)O[C@@H]7CNCc1ccc(Cl)cc1)O[C@@H]6CNCc1ccc(Cl)cc1)O[C@@H]5CNCc1ccc(Cl)cc1)O[C@@H]4CNCc1ccc(Cl)cc1)O[C@@H]3CNCc1ccc(Cl)cc1` [Compound 9], the IC50 (LeTx) is reported as 5.4 ± 0.8 µM.
With `O[C@@H]1[C@@H](O)[C@H]2O[C@H]3[C@H](O)[C@@H](O)[C@@H](O[C@H]4[C@H](O)[C@@H](O)[C@@H](O[C@H]5[C@H](O)[C@@H](O)[C@@H](O[C@H]6[C@H](O)[C@@H](O)[C@@H](O[C@H]7[C@H](O)[C@@H](O)[C@@H](O[C@H]8[C@H](O)[C@@H](O)[C@@H](O[C@@H]1[C@@H](CNCc1ccc(Br)cc1)O2)O[C@@H]8CNCc1ccc(Br)cc1)O[C@@H]7CNCc1ccc(Br)cc1)O[C@@H]6CNCc1ccc(Br)cc1)O[C@@H]5CNCc1ccc(Br)cc1)O[C@@H]4CNCc1ccc(Br)cc1)O[C@@H]3CNCc1ccc(Br)cc1` [Compound 10] the “Inhibition of α-HL hemolytic activity (in words)” value (α-HL [1]) was “did not display any activity” and the IC50 (α-HL [1]; erythrocytes) was > 100 µM.
For `CC(C)(C)OC(=O)NC(CCCN)C(=O)NCC1OC2OC3C(CNC(=O)C(CCCN)NC(=O)OC(C)(C)C)OC(OC4C(CNC(=O)C(CCCN)NC(=O)OC(C)(C)C)OC(OC5C(CNC(=O)C(CCCN)NC(=O)OC(C)(C)C)OC(OC6C(CNC(=O)C(CCCN)NC(=O)OC(C)(C)C)OC(OC7C(CNC(=O)C(CCCN)NC(=O)OC(C)(C)C)OC(OC8C(CNC(=O)C(CCCN)NC(=O)OC(C)(C)C)OC(OC1C(O)C2O)C(O)C8O)C(O)C7O)C(O)C6O)C(O)C5O)C(O)C4O)C(O)C3O` (stereo not shown) [Compound 11], the IC50 (α-HL [2]) was ~0.05 µM, the IC50 (α-HL [1]) was 3.3 µM and the “Inhibition of α-HL hemolytic activity (in words)” value (α-HL [1]) was “inhibits α-HL”.
With `CC(C)(C)OC(=O)NC(CCCN)C(=O)NCC1OC2OC3C(CNC(=O)C(CCCN)NC(=O)OC(C)(C)C)OC(OC4C(CNC(=O)C(CCCN)NC(=O)OC(C)(C)C)OC(OC5C(CNC(=O)C(CCCN)NC(=O)OC(C)(C)C)OC(OC6C(CNC(=O)C(CCCN)NC(=O)OC(C)(C)C)OC(OC7C(CNC(=O)C(CCCN)NC(=O)OC(C)(C)C)OC(OC8C(CNC(=O)C(CCCN)NC(=O)OC(C)(C)C)OC(OC9C(CNC(=O)C(CCCN)NC(=O)OC(C)(C)C)OC(OC1C(O)C2O)C(O)C9O)C(O)C8O)C(O)C7O)C(O)C6O)C(O)C5O)C(O)C4O)C(O)C3O` (stereo not shown) [Compound 12] the IC50 (α-HL [1]) was > 100 µM.
For `Cc1ccc(CNCC2OC3OC4C(CNCc5ccc(C)cc5)OC(OC5C(CNCc6ccc(C)cc6)OC(OC6C(CNCc7ccc(C)cc7)OC(OC7C(CNCc8ccc(C)cc8)OC(OC8C(CNCc9ccc(C)cc9)OC(OC9C(CNCc%10ccc(C)cc%10)OC(OC2C(O)C3O)C(O)C9O)C(O)C8O)C(O)C7O)C(O)C6O)C(O)C5O)C(O)C4O)cc1` (stereo not shown) [Compound 5105], the IC50 (ε-toxin) was 20 ± 10 µM and the “Inhibition of ε-toxin cytotoxicity / protection of MDCK cells (in words)” value (ε-toxin) was “protection”.
Molecule `OC1C2OC(CNCc3ccc(Cl)cc3)C(OC3OC(CNCc4ccc(Cl)cc4)C(OC4OC(CNCc5ccc(Cl)cc5)C(OC5OC(CNCc6ccc(Cl)cc6)C(OC6OC(CNCc7ccc(Cl)cc7)C(OC7OC(CNCc8ccc(Cl)cc8)C(OC8OC(CNCc9ccc(Cl)cc9)C(O2)C(O)C8O)C(O)C7O)C(O)C6O)C(O)C5O)C(O)C4O)C(O)C3O)C1O` (stereo not shown) [Compound 5130] has an IC50 (ε-toxin) of 21 ± 9 µM.
Work on `OC1C2OC(CNCc3ccc(Br)cc3)C(OC3OC(CNCc4ccc(Br)cc4)C(OC4OC(CNCc5ccc(Br)cc5)C(OC5OC(CNCc6ccc(Br)cc6)C(OC6OC(CNCc7ccc(Br)cc7)C(OC7OC(CNCc8ccc(Br)cc8)C(OC8OC(CNCc9ccc(Br)cc9)C(O2)C(O)C8O)C(O)C7O)C(O)C6O)C(O)C5O)C(O)C4O)C(O)C3O)C1O` (stereo not shown) [Compound 5137] yielded an IC50 (ε-toxin) of 20 ± 1 µM.
For β-cyclodextrin [β-CD], the Bioavailability [3] is given as 0.1-4%.
